# “Also recorded” adds a separate entry of the source.
# Columns and labels:
# Sprague-Dawley rats = assay: Operant sucrose self-administration procedure; assay type: in vivo, rat
# Method: Naïve female Sprague-Dawley rats (230-270 g; Taconic, Germantown, N.Y.) were housed individually and maintained on a normal 12 hr light cycle (light on/off at 7 a.m./7 p.m.) in the colony room. For all experiments, food (normal chow) and water were provided ad libitum. The experiments were conducted in accordance with the “Guide for the Care and Use of Laboratory Animals” (National Academy of Sciences, 1996).
# Rats were water deprived for 23 h so that shaping of the bar-press response could initially be accomplished by training rats to bar-press for water. Thereafter, in non-deprived rats, oral sucrose self-administration testing began with a 16-h nocturnal session followed by daily 1-h sessions, 5 days (Monday-Friday) a week. Rats were allowed access to two levers mounted 15 cm apart on the front wall of each operant test chamber (Coulbourn Instruments, Allentown, Pa.). A response on either of the two levers produced a sucrose reward (15% solution; 0.01 ml) on a FR1 TO 20 (fixed ratio 1 with a 20 sec time-out) schedule. After rates of sucrose self-administration stabilized (20% variation from one day to the next across 5 days), usually after 2 weeks of testing, 18-MC (10-40 mg/kg) or vehicle was administered i.p. 15 minutes before a test session. Each rat typically received two or three different treatments (in randomized order) spaced at least one week apart.
# The operant self-administration data were analyzed by two-way ANOVA with reward (sucrose vs. water) and dose of 18-MC as the main factors. Subsequent post hoc tests (Newman-Keuls) compared the effects of 18-MC to baseline.
# [1] = Weight gain paradigm: water-drinking animals; assay type: in vivo, rat; conditions: 18-MC 20 mg/kg i.p. daily for two weeks
# Method: Animals were allowed unlimited access to regular chow and water and were injected daily with 18-MC (20 mg/kg, i.p.) or vehicle for two weeks. Body weights were recorded immediately prior to injections and were also recorded for an additional week upon cessation of 18-MC treatment.
# (§1) For the weight gain experiment, the data for all four treatment groups from days 1-21 were analyzed using two-way ANOVA, with treatment and time as main factors. Furthermore, the data for the first two weeks and the last week for water-vehicle, water-18-MC and sucrose 18-MC were analyzed separately using two-ANOVA, with treatment and time as main factors. Post-hoc comparison tests (Fisher LSD tests) were conducted when appropriate.
# [2] = system: morphine-experienced rats; conditions: cited from earlier work
# rats [3] = conditions: systemic pretreatment; cited from earlier work
# α3β4 nicotinic receptors = α3β4 nicotinic receptors (Homo sapiens, UniProt P30926+P32297); conditions: cited from earlier work
# rats [4] = conditions: cited from earlier work
# [5] = Weight gain paradigm: sucrose-drinking animals; assay type: in vivo, rat
# Method: FIG. 11 is a graph showing effects of repeated administration of 18-MC (20 mg/kg i.p. for 14 days) on body fat depots (mean±SEM). *=p<0.05. On the seventh day after the last injection of 18-MC, animals were euthanized in CO2 chambers and decapitated. Necropsies were performed to remove periovarian, perirenal and inguinal fat pads.
# Animals were maintained on a regular chow and water for the duration of experiment (three weeks). On the first day of experiment, animals received additional bottle containing 30% sucrose solution which remained available for the following three weeks; the bottle sides were switched daily. The body weights of rats were recorded daily for the following two weeks immediately prior administration of 18-MC (20 mg/kg, i.p.) or vehicle. After the last 18-MC injection, the weights were monitored for the additional week.
# as §1
# Chain of α3β4 nicotinic receptors (P32297 32-505): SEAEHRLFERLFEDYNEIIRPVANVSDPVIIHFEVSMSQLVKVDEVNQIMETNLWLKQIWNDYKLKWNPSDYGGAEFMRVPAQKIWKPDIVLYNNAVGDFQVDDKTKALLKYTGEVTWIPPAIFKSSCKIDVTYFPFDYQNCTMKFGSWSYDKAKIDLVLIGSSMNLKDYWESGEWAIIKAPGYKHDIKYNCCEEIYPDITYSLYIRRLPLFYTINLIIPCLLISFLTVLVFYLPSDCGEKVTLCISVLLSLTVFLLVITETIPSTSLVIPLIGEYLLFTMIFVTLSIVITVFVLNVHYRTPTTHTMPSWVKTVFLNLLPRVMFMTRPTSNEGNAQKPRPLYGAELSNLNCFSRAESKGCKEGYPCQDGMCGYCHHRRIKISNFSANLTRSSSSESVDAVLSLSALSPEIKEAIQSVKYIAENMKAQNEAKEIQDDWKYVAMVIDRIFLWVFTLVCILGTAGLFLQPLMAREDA
# Chain of α3β4 nicotinic receptors (P30926 22-498): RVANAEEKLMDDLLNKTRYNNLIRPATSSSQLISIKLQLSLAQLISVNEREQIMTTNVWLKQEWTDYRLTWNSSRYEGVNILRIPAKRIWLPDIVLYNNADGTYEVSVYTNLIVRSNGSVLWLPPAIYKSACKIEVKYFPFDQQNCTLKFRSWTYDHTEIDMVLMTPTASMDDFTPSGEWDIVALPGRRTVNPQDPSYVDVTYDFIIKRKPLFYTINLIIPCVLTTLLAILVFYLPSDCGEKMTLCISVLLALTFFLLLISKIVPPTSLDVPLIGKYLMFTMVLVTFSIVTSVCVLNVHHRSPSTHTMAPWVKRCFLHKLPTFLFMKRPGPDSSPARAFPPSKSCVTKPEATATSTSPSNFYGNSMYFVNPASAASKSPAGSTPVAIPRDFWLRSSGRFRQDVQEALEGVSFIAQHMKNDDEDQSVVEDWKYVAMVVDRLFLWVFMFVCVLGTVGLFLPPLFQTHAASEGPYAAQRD
compound,measurement,setting,value
"COCC[C@H]1CC2CN3CCc4c([nH]c5ccccc45)[C@](C(=O)OC)(C2)[C@H]13 [18-MC, 18-methoxycoronaridine]",effect on sucrose responding,"Sprague-Dawley rats; 18-MC 20 mg/kg i.p., 10, 15 and 20% sucrose",no significant effect
same,decrease of sucrose responding,"Sprague-Dawley rats; 18-MC 20 mg/kg i.p., not significant",10-20%
same,operant responding for sucrose,"Sprague-Dawley rats; 18-MC 40 mg/kg i.p., 15 min before 1-h session, 15% sucrose",reduced; also recorded: decreased
same,operant responding for water,"Sprague-Dawley rats; 18-MC up to 40 mg/kg i.p., water 0.01 ml/barpress",no effect
same,body weight of rats maintained on water and chow,[1],no effect
same,sensitized morphine-induced dopamine release in the nucleus accumbens,[2],attenuate
same,intravenous self-administration of morphine and other drugs,rats [3],reduce
same,action at α3β4 nicotinic receptors,α3β4 nicotinic receptors,selective antagonist; also recorded: noncompetitive antagonist
same,signs of acute opioid withdrawal,rats [4],alleviate
same,weights of fat depots,"[5]; 18-MC 20 mg/kg i.p. for 14 days, periovarian, perirenal and inguinal fat pads",decreased
same,recovery of the weight gain after cessation of treatment,[5]; 18-MC-treated sucrose-drinking group,did not occur for another week
same,sucrose-induced (excessive) weight gain,"[5]; 30% sucrose, 18-MC 20 mg/kg i.p. daily for two weeks",attenuated; also recorded: totally prevented
same,body weights vs vehicle-treated sucrose-drinking animals,"[5]; 30% sucrose, 18-MC (40 mg/kg i.p.) as printed, all time points except the first",significantly lower
